In patent US10851064B2, “ACSS2 inhibitors and methods of use thereof” (METABOMED LTD., priority 2017, dated 2020):
Where “and” joins values, the source holds several entries; their conditions need not be identical. Identical values can stand only once.

Experiments:
ACSS2 [1] = molecular target: T1, ACSS2 (Homo sapiens, UniProt Q9NR19); experiment: cell-based
Protocol: Testing the inhibitory effect of compounds on the cellular activity of ACSS2 was done by tracing the incorporation of ^13C from ^13C-acetate into fatty-acids in MDA-MB-468 cells under hypoxic conditions of 1% 02. The assay was done for 5 hours in DMEM with 5.5 mM glucose, 1 mM sodium Pyruvate, 0.65 mM Glutamine, 3.5 ug/ml Biotin, 1% dialyzed serum, 0.5 mM 13C-acetate and with different concentrations of the inhibitors. At the end of the incubation, the cells were washed with cold PBS, harvested into glass tubes and undergo saponification. The level of ^13C incorporation into Palmitate was done by LC-MS analysis and the level of inhibition was calculated with PRISM software.

ACSS2 [2] = molecular target: T1, ACSS2; experiment: biochemical
ACSS2 [3] = molecular target: T1, ACSS2; experiment: cell-based; remark: listed apart in the source
Protocol: (§1) ACSS2 Cellular Activity Assay (Cellular IC50)
(§2) The cellular activity of ACSS2 was based on tracing the incorporation of carbons from ^13C-Acetate into fatty-acids.
(§3) BT474/MDA-MB-468 cells growing in DMEM+25 mM D-glucose+1 mM sodium pyruvate+10% FBS+2 mM glutamine were plated in 12-well plates at 0.4×10^6 cells/well. The cells were then incubated at CO2 incubator for 24 hrs at hypoxic conditions (1% O2) before treated with compounds. At day 2, the medium was replaced to DMEM medium containing 15 mM Glucose, 1 mM Pyruvate, 0.65 mM Glutamine, 1% Dialyzed serum, 3.5 ug/ml Biotin, 0.2 mM ^13C-Acetate and various concentrations of the compounds. The cells were incubated for 5 hours at CO2 incubator in hypoxic conditions (1% O2). At the end of the 5 hours' incubation, the cells were washed twice with cold PBS, harvested in 1 ml PBS and transfer into V-shaped HPLC glass vials and centrifuge for 10 min at 600 g at 4 C. The supernatant was removed, and the cells' pellets were stored at −80° C. until taken for saponification.
(§4) The cells pellets were resuspended with 0.5 ml of the 90% Methanol, 10% H2O, 0.3M NaOH mixture and incubated at 80° C. for 60 min. Following the incubation, 50 μl formic acid and 0.4 ml hexane were added and the mixture was vortexed for 2 minutes. The vials were left few minutes for phases separation and then 200 μl of the top hexane phase extracted to a new glass vial. The hexane was dried under nitrogen and reconstituted in 100 μl of Methanol:Acetonitrile 5:3 mixture. The solution transferred to Eppendorf tubes, spun down at 17000 G for 20 min and transferred to LC-MS vials.
(§5) The analysis was performed with Thermo Q Exactive mass spectrometer with HESI probe and Dionex Ultimate 3000 UHPLC system. The separations were performed on Phenomenex Kintex 2.6u XB-C18 100A 150×2.10 mm column by injecting 5 ul of each sample. The chromatography started with a linear gradient from 85% to 100% of organic solvent (Methanol:Acetonitrile 1:1) versus 10 mM Ammonium Acetate buffer pH 4.7 for 3.5 minutes, followed by 4.5 minutes of isocratic 100% organic solvent and then 3 minutes of isocratic initial conditions, at a flow rate of 0.3 ul/min. The MS source conditions that were used: capillary temperature 325° C., sheath flow 25, aux flow 15, spray voltage 3.8 kV, aux temperature 300° C. The data collected from Negative ion mode at resolution of 70000 at Full-MS mode in 75-1000 m/z range.
(§6) The analysis of ^13C acetate incorporation into fatty acids (palmitate, myristate and stearate) performed on TraceFinder 3.2.512.0. The negative control areas and ^13C isotopic theoretical natural abundance were subtracted from the samples areas. Total ^13C incorporation for each fatty-acid (palmitate, myristate and stearate) was calculated and presented as percentage of the total amount.

ACSS2 [4] = molecular target: T1, ACSS2; experiment: cell-based; remark: listed apart in the source
Protocol: as §1, §2, §3, §4, §5, §6

T1 sequence (Q9NR19 whole entry): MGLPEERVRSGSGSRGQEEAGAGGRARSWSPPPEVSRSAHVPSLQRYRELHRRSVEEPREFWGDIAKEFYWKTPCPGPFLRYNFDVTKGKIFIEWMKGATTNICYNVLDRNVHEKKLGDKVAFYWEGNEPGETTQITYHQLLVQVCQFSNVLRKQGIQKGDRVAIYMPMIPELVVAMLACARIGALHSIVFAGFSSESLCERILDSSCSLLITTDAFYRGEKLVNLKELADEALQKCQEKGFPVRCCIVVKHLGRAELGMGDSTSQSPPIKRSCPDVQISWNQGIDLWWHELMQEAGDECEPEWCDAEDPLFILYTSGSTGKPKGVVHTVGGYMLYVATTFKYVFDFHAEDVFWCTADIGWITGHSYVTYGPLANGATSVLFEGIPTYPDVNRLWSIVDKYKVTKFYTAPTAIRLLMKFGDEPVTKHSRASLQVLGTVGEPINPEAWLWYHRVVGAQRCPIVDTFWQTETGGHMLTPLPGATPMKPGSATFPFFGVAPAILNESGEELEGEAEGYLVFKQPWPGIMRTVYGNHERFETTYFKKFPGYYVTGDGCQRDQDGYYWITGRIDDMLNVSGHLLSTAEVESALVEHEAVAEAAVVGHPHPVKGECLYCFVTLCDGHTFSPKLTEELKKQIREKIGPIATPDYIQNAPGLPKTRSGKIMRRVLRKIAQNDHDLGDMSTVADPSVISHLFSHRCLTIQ

SMILES	IC50 (ACSS2 [1]) [nM]	IC50 (ACSS2 [2]) [nM]	IC50 (ACSS2 [3])	IC50 (ACSS2 [4])
CC1=NN(c2ccccc2)C(=O)C1C(=O)Nc1cccc(C(=O)N(C)C)c1 (stereo not drawn) [compound 220, N-(3-(dimethylcarbamoyl)phenyl)-3-methyl-5-oxo-1-phenyl-4,5-dihydro-1H-pyrazole-4-carboxamide]	> 100	0.01 to 6	< 100 nM	100 to 1000 nM
CC1=NN(c2ccccc2)C(=O)C1C(=O)Nc1cccc(C(C)(F)F)c1 (stereo not drawn) [compound 141, N-(3-(1,1-difluoroethyl)phenyl)-3-methyl-5-oxo-1-phenyl-4,5-dihydro-1H-pyrazole-4-carboxamide]	0.5 to 50	0.01 to 6	< 100 nM	< 100 nM
CC1=NN(c2ccccc2)C(=O)C1C(=O)Nc1cccc(-c2ncco2)c1 (stereo not drawn) [compound 124, 3-methyl-N-(3-(oxazol-2-yl)phenyl)-5-oxo-1-phenyl-4,5-dihydro-1H-pyrazole-4-carboxamide]	> 100	6 to 100	100 to 1000 nM	100 to 1000 nM
CC1=NN(c2cccc(C(F)(F)F)c2)C(=O)C1C(=O)Nc1cccc(-c2cnccn2)c1 (stereo not drawn) [compound 166, 3-methyl-5-oxo-N-(3-(pyrazin-2-yl)phenyl)-1-(3-(trifuoromethyl)phenyl)-4,5-dihydro-1H-pyrazole-4-carboxamide]	> 100	0.01 to 6	< 100 nM (2×) and 100 nM to 1 µM	
CC1=NN(c2ccccc2)C(=O)C1C(=O)Nc1cccc(-c2ccco2)c1 (stereo not drawn) [compound 108, N-(3-(furan-2-yl)phenyl)-3-methyl-5-oxo-1-phenyl-4,5-dihydro-1H-pyrazole-4-carboxamide]	0.5 to 50	0.01 to 6	< 100 nM	< 100 nM

Other lines, results leading:

IC50 (ACSS2 [1]) [nM]	IC50 (ACSS2 [2]) [nM]	IC50 (ACSS2 [3])	IC50 (ACSS2 [4])	SMILES
> 100	6 to 100	≥ 1000 nM		CC1=NN(c2cccc(C(=O)O)c2)C(=O)C1C(=O)Nc1cccc(-c2cnccn2)c1 (stereo not drawn) [compound 169]
0.5 to 50	6 to 100	100 to 1000 nM		CCc1cccc(NC(=O)C2C(=O)N(c3ccc4c(c3)OCO4)N=C2C)c1 (stereo not drawn) [compound 168]
0.5 to 50	0.01 to 6	< 100 nM		CC1=NN(c2cccc(C(F)(F)F)c2)C(=O)C1C(=O)Nc1cccc(-c2ccco2)c1 (stereo not drawn) [compound 165]
> 100	6 to 100	≥ 1000 nM		CC1=NN(c2cccc(C(=O)O)c2)C(=O)C1C(=O)Nc1cccc(-c2ccco2)c1 (stereo not drawn) [compound 159, 3-(4-((3-(furan-2-yl)phenyl)carbamoyl)-3-methyl-5-oxo-4,5-dihydro-1H-pyrazol-1-yl)benzoic acid]
0.5 to 50	6 to 100	100 to 1000 nM	≥ 1000 nM and 100 to 1000 nM	CC1=NN(c2ccccc2)C(=O)C1C(=O)Nc1cccc(-c2ncc[nH]2)c1 (stereo not drawn) [compound 107, N-(3-(1H-imidazol-2-yl)phenyl)-3-methyl-5-oxo-1-phenyl-4,5-dihydro-1H-pyrazole-4-carboxamide]
> 100	6 to 100	100 to 1000 nM	100 to 1000 nM	CCc1cccc(NC(=O)C2C(=O)N(c3ccc(OC(C)C)cc3)N=C2C)c1 (stereo not drawn) [compound 142, N-(3-ethylphenyl)-1-(4-isopropoxyphenyl)-3-methyl-5-oxo-4,5-dihydro-1H-pyrazole-4-carboxamide]
